Measured values as given in patent US20250197382A1, “KIF18A INHIBITOR” (WIGEN BIOMEDICINE TECHNOLOGY (SHANGHAI) CO., LTD., priority 2022, published 2025).

Molecular target: Recombinant human KIF18A (1-467His-tagged) protein (Homo sapiens (Human), UniProt Q8NI77)
Assay: KIF18A enzyme assay (microtubule-stimulated ATPase activity, ADP-Glo)
Assay type: biochemical
Settings: 30 nM KIF18A, ATP 75 μM, read-out: inhibitory activity against KIF18A IC50
Experimental: Biological Example 1. Assay for In Vitro Inhibition of Enzymatic Activity of KIF18A by Compounds of the Present Invention
KIF18A enzyme assay: The enzymatic activity of KIF18A after treatment with the compounds was measured by an assay of microtubule-stimulated ATPase activity. ADP generated from the ATPase reaction was measured in this assay. The compounds were serially diluted 2-fold in DMSO over a range of 22 concentration points. Recombinant human KIF18A (1-467His-tagged) protein was expressed using a baculovirus system. Concentrations of KIF18A protein, microtubules, and ATP in the reaction were optimized for a standardized homogenous enzyme assay using an ADP-Glo kinase/ATPase assay kit. A reaction buffer [(15 mM Tris, pH 7.5), 10 mM MgCl2, 0.01% PluronicF-68, 1 μM paclitaxel, and 30 μg/mL pig microtubules] was prepared. The compounds and KIF18A protein (30 nM) were added to the prepared reaction buffer, and the reaction mixture was incubated at room temperature for 15 min, followed by addition of ATP (Km, 75 μM). The resulting reaction mixture was incubated at room temperature for another 15 min. 5 μL of ADP-Glo reagent and 2.5 μL of the reaction mixture were mixed and the resulting mixture was incubated at room temperature for 40 min. 10 μL of ADP-Glo detection reagent was added and the mixture was incubated at room temperature for 40 min. Luminescence was measured using a microplate reader and compared with that of the DMSO group, and then the inhibition percentages and IC50 values of the compounds were calculated.

Recombinant human KIF18A (1-467His-tagged) protein, sequence (Q8NI77 1-467): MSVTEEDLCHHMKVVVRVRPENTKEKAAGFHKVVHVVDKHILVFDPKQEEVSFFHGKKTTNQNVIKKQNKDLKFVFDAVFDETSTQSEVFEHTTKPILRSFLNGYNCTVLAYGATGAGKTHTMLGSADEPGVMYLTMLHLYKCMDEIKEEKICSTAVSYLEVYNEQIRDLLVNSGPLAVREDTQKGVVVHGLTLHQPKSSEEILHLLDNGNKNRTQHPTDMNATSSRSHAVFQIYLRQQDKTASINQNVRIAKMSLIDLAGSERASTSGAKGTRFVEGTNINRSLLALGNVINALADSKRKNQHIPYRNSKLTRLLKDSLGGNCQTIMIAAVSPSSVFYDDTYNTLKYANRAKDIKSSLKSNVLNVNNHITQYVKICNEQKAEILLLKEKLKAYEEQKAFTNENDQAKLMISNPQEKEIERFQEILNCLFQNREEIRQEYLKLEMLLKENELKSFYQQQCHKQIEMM
Recombinant human KIF18A (1-467His-tagged) protein, sequence (P02550 whole entry partner): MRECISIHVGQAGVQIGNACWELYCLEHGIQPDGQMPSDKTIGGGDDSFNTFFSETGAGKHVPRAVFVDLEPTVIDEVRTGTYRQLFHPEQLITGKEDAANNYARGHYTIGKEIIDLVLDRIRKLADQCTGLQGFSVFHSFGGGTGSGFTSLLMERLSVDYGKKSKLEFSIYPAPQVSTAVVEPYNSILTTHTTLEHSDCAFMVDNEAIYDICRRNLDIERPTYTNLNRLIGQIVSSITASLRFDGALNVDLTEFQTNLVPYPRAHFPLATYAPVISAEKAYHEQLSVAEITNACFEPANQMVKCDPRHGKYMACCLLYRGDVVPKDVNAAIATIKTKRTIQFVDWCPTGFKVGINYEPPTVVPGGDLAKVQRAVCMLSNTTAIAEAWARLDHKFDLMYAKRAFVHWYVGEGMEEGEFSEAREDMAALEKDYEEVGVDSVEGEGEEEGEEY
Recombinant human KIF18A (1-467His-tagged) protein, sequence (P02554 whole entry partner): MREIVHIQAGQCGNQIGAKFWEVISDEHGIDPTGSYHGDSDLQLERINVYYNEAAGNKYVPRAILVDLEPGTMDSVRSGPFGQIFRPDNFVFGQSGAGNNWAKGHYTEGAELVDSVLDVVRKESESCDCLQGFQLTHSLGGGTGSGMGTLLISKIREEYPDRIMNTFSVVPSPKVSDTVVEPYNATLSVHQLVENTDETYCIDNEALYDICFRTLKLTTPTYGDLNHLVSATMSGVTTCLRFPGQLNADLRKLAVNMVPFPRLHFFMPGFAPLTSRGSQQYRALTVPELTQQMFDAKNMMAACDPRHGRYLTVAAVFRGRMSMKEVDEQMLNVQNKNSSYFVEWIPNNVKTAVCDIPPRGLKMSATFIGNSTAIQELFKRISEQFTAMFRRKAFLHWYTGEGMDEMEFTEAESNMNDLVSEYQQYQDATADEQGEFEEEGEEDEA

Row | Compound | IC50
1 | C[C@@H](CO)S(=O)(=O)Nc1ccc(NC(=O)c2cc(N3CCC(F)(F)CC3)c3occc3c2)c(N2CCC3(CC2)CC3)c1 [Compound 173] | ≤ 100 nM
2 | O=C(Nc1ccc(S(=O)(=O)NCCO)cc1N1CCC2(CC1)CC2)c1cc2c(c(N3CCOCC3)c1)OCC2 [Compound 60] | ≤ 100 nM
3 | C[C@@H]1CN(c2cc(C(=O)Nc3ccc(NS(=O)(=O)[C@@H](C)CO)cc3N3CCC4(CC3)CC4)cc3ccoc23)CCO1 [Compound 175] | ≤ 100 nM
4 | O=C(Nc1cc2c(c(N3CCC4(CC4)C3)n1)OCC2)c1ccc(S(=O)(=O)NCCO)cc1N1CCC2(CC1)CC2 [Compound 86] | ≤ 100 nM
5 | O=C(Nc1ccc(S(=O)(=O)NCCO)cc1N1CCC2(CC1)CC2)c1cc2c(c(N3CC(F)(F)C3)c1)OCC2 [Compound 52] | ≤ 100 nM
6 | C[C@@H]1CN(c2cc(NC(=O)c3ccc(S(=O)(=O)N[C@@H](C)CO)cc3N3CCC4(CC3)CC4)cc3ccn(C)c23)CCO1 [Compound 415] | ≤ 100 nM
7 | C[C@@H]1CN(c2cc(NC(=O)c3ccc(NS(=O)(=O)[C@H](C)CO)cc3N3CCC4(CC3)CC4)cc3c2N(C)CC3)CCO1 [Compound 272] | ≤ 100 nM
8 | CN1CCc2cc(NC(=O)c3ccc(NS(=O)(=O)CCO)cc3N3CCC4(CC3)CC4)cc(N3CC4CC4C3)c21 (stereo not drawn) [Compound 266] | ≤ 100 nM
9 | CN1CCc2cc(C(=O)Nc3ccc(NS(=O)(=O)CCO)cc3N3CCC4(CC3)CC4)cc(OC3CCC3)c21 [Compound 295] | ≤ 100 nM
10 | C[C@@H]1CN(c2cc(C(=O)Nc3ccc(NS(=O)(=O)[C@@H](C)CO)cc3N3CCC4(CC3)CC4)cc3ccn(C)c23)CCO1 [Compound 431] | ≤ 100 nM
11 | CN1CCc2cc(NC(=O)c3ccc(NS(=O)(=O)CCO)cc3N3CCC4(CC3)CC4)cc(N3CCC(C)(F)C3)c21 (stereo not drawn) [Compound 264] | ≤ 100 nM
12 | C[C@@H](CO)S(=O)(=O)Nc1ccc(NC(=O)c2cc3c(c(N4CCC(F)(F)CC4)c2)OCC3)c(N2CCC3(CC2)CC3)c1 [Compound 45] | ≤ 100 nM
13 | Cn1ccc2cc(C(=O)Nc3ccc(S(=O)(=O)NCCO)cc3N3CCC4(CC3)CC4)cc(N3CCC4(CC4)C3)c21 [Compound 438] | ≤ 100 nM
14 | Cn1ccc2cc(NC(=O)c3ccc(NS(=O)(=O)CCO)cc3N3CCC4(CC3)CC4)nc(N3CCOCC3)c21 [Compound 460] | ≤ 100 nM
15 | CN1CCc2cc(NC(=O)c3ccc(NS(=O)(=O)CCO)cc3N3CCC4(CC3)CC4)cc(OCCC(F)(F)F)c21 [Compound 261] | ≤ 100 nM
16 | Cn1ccc2cc(NC(=O)c3ccc(S(=O)(=O)NCCO)cc3N3CCC4(CC3)CC4)nc(N3CCC(F)(F)CC3)c21 [Compound 465] | ≤ 100 nM
17 | CN1CCc2cc(C(=O)Nc3ccc(S(=O)(=O)NCCO)cc3N3CCC4(CC3)CC4)nc(N3CCOCC3)c21 [Compound 380] | ≤ 100 nM
18 | C[C@@H]1CN(c2nc(C(=O)Nc3ccc(S(=O)(=O)NCCO)cc3N3CCC4(CC3)CC4)cc3ccoc23)CCO1 [Compound 242] | ≤ 100 nM
19 | C[C@H](CO)NS(=O)(=O)c1ccc(C(=O)Nc2cc3c(c(N4CCC(F)(F)CC4)n2)N(C)CC3)c(N2CCC3(CC2)CC3)c1 [Compound 350] | ≤ 100 nM

Row | Compound | IC50
20 | O=C(Nc1cc(N2CCC(F)(F)CC2)c2[nH]cnc2c1)c1ccc(NS(=O)(=O)CCO)cc1N1CCC2(CC1)CC2 [Compound 525] | ≤ 100 nM
21 | O=C(Nc1cc2ccnn2c(N2CCC(F)(F)CC2)n1)c1ccc(NS(=O)(=O)CCO)cc1N1CCC2(CC1)CC2 [Compound 534] | ≤ 100 nM
22 | Cn1ccc2cc(NC(=O)c3ccc(NS(=O)(=O)CCO)cc3N3CCC4(CC3)CC4)nc(N3CCC(F)CC3)c21 [Compound 457] | ≤ 100 nM
23 | Cn1ccc2cc(NC(=O)c3ccc(NS(=O)(=O)CCO)cc3N3CCC4(CC3)CC4)nc(OCCC(F)(F)F)c21 [Compound 453] | ≤ 100 nM
24 | O=C(Nc1cc(N2CCC(F)(F)CC2)c2[nH]ccc2c1)c1ccc(NS(=O)(=O)CCO)cc1N1CCC2(CC1)CC2 [Compound 521] | ≤ 100 nM
25 | O=C(Nc1cc(OC2CCC2)c2occc2c1)c1ccc(S(=O)(=O)NCCO)cc1N1CCC2(CC1)CC2 [Compound 151] | ≤ 100 nM
26 | O=C(Nc1ccc(NS(=O)(=O)CCO)cc1N1CCC2(CC1)CC2)c1cc(N2CCOCC2)c2occc2c1 [Compound 172] | ≤ 100 nM
27 | O=C(Nc1cc2ccoc2c(N2CCC3(CC3)C2)n1)c1ccc(S(=O)(=O)NCCO)cc1N1CCC2(CC1)CC2 [Compound 214] | ≤ 100 nM
28 | C[C@@H]1CN(c2nc(C(=O)Nc3ccc(S(=O)(=O)NCCO)cc3N3CCC4(CC3)CC4)cc3c2OCC3)CCO1 [Compound 114] | ≤ 100 nM
29 | Cn1ccc2cc(NC(=O)c3ccc(S(=O)(=O)NCCO)cc3N3CCC4(CC3)CC4)nc(N3CC(F)(F)C3)c21 [Compound 468] | ≤ 100 nM
30 | CN1CCc2cc(C(=O)Nc3ccc(S(=O)(=O)NCCO)cc3N3CCC4(CC3)CC4)nc(N3CC(F)(F)C3)c21 [Compound 372] | ≤ 100 nM
31 | C[C@@H](CO)S(=O)(=O)Nc1ccc(NC(=O)c2cc3ccoc3c(N3CCC(F)(F)CC3)n2)c(N2CCC3(CC2)CC3)c1 [Compound 237] | ≤ 100 nM
32 | C[C@@H]1CN(c2nc(C(=O)Nc3ccc(S(=O)(=O)N[C@@H](C)CO)cc3N3CCC4(CC3)CC4)cc3c2N(C)CC3)CCO1 [Compound 383] | ≤ 100 nM
33 | CN1CCc2cc(NC(=O)c3ccc(NS(=O)(=O)CCO)cc3N3CCC4(CC3)CC4)cc(N3CCC(F)CC3)c21 [Compound 265] | ≤ 100 nM
34 | O=C(Nc1ccc(NS(=O)(=O)CCO)cc1N1CCC2(CC1)CC2)c1cc(N2CC3CC3C2)c2occc2c1 (stereo not drawn) [Compound 170] | ≤ 100 nM
35 | CN1CCc2cc(C(=O)Nc3ccc(S(=O)(=O)NCCO)cc3N3CCC4(CC3)CC4)nc(OCCC(F)(F)F)c21 [Compound 373] | ≤ 100 nM
36 | CN1CCc2cc(C(=O)Nc3ccc(NS(=O)(=O)CCO)cc3N3CCC4(CC3)CC4)cc(N3CC(F)(F)C3)c21 [Compound 292] | ≤ 100 nM
37 | C[C@@H]1CN(c2cc(C(=O)Nc3ccc(NS(=O)(=O)[C@H](C)CO)cc3N3CCC4(CC3)CC4)cc3c2N(C)CC3)CCO1 [Compound 304] | ≤ 100 nM
38 | Cn1ccc2cc(C(=O)Nc3ccc(S(=O)(=O)NCCO)cc3N3CCC4(CC3)CC4)nc(N3CC(F)(F)C3)c21 [Compound 500] | ≤ 100 nM

Row | Compound | IC50
39 | Cn1ccc2cc(NC(=O)c3ccc(S(=O)(=O)NCCO)cc3N3CCC4(CC3)CC4)cc(N3CCC4(CC4)C3)c21 [Compound 406] | ≤ 100 nM
40 | C[C@H](CO)NS(=O)(=O)c1ccc(NC(=O)c2cc3c(c(N4CCC(F)(F)CC4)c2)OCC3)c(N2CCC3(CC2)CC3)c1 [Compound 62] | ≤ 100 nM
41 | O=C(Nc1ccc(S(=O)(=O)NCCO)cc1N1CCC2(CC1)CC2)c1cc2c(c(N3CC(F)(F)C3)n1)OCC2 [Compound 116] | ≤ 100 nM
42 | O=C(Nc1cc(N2CCC(F)(F)CC2)c2ncsc2c1)c1ccc(NS(=O)(=O)CCO)cc1N1CCC2(CC1)CC2 [Compound 519] | ≤ 100 nM
43 | O=C(Nc1cc2c(c(N3CC4CC4C3)n1)OCC2)c1ccc(NS(=O)(=O)CCO)cc1N1CCC2(CC1)CC2 (stereo not drawn) [Compound 74] | ≤ 100 nM
44 | O=C(Nc1cc2ccoc2c(N2CCC(F)CC2)n1)c1ccc(NS(=O)(=O)CCO)cc1N1CCC2(CC1)CC2 [Compound 201] | ≤ 100 nM
45 | CN1CCc2cc(C(=O)Nc3ccc(NS(=O)(=O)CCO)cc3N3CCC4(CC3)CC4)cc(OCCC(F)(F)F)c21 [Compound 293] | ≤ 100 nM
46 | C[C@H]1CN(c2cc(C(=O)Nc3ccc(NS(=O)(=O)CCO)cc3N3CCC4(CC3)CC4)cc3ccn(C)c23)CCO1 [Compound 419] | ≤ 100 nM
47 | C[C@@H]1CN(c2cc(NC(=O)c3ccc(S(=O)(=O)NCCO)cc3N3CCC4(CC3)CC4)cc3ccoc23)CCO1 [Compound 146] | ≤ 100 nM
48 | C[C@@H]1CN(c2nc(NC(=O)c3ccc(NS(=O)(=O)CCO)cc3N3CCC4(CC3)CC4)cc3ccn(C)c23)CCO1 [Compound 450] | ≤ 100 nM
49 | C[C@H](CO)NS(=O)(=O)c1ccc(NC(=O)c2cc3ccoc3c(N3CCC(F)(F)CC3)n2)c(N2CCC3(CC2)CC3)c1 [Compound 254] | ≤ 100 nM
50 | CN1CCc2cc(NC(=O)c3ccc(NS(=O)(=O)CCO)cc3N3CCC4(CC3)CC4)nc(N3CCC(C)(F)C3)c21 (stereo not drawn) [Compound 328] | ≤ 100 nM
51 | C[C@H]1CN(c2nc(NC(=O)c3ccc(NS(=O)(=O)CCO)cc3N3CCC4(CC3)CC4)cc3c2N(C)CC3)CCO1 [Compound 323] | ≤ 100 nM
52 | Cn1ccc2cc(NC(=O)c3ccc(S(=O)(=O)NCCO)cc3N3CCC4(CC3)CC4)nc(N3CCC(F)CC3)c21 [Compound 473] | ≤ 100 nM
53 | O=C(Nc1cc2c(c(N3CCC4(CC4)C3)c1)OCC2)c1ccc(S(=O)(=O)NCCO)cc1N1CCC2(CC1)CC2 [Compound 22] | ≤ 100 nM
54 | CN1CCc2cc(C(=O)Nc3ccc(S(=O)(=O)NCCO)cc3N3CCC4(CC3)CC4)nc(N3CCC(F)(F)CC3)c21 [Compound 369] | ≤ 100 nM
55 | CN1CCc2cc(C(=O)Nc3ccc(NS(=O)(=O)CCO)cc3N3CCC4(CC3)CC4)cc(N3CCC(F)(F)CC3)c21 [Compound 257] | ≤ 100 nM
56 | O=C(Nc1cc2ccoc2c(OCCC(F)(F)F)n1)c1ccc(NS(=O)(=O)CCO)cc1N1CCC2(CC1)CC2 [Compound 197] | ≤ 100 nM
57 | O=C(Nc1ccc(S(=O)(=O)NCCO)cc1N1CCC2(CC1)CC2)c1cc2c(c(N3CCC(F)CC3)n1)OCC2 [Compound 121] | ≤ 100 nM
